Laboratory results as given in patent publication US12624018B1, “Inhibitors of RIPK2 and medical uses thereof” (Odyssey Therapeutics, Inc., priority 2022, dated 2026).

Target: T1, RIPK2 enzyme (Homo sapiens, UniProt O43353)
T1 construct: purchased Carna 09-128
Assay: RIPK2 inhibition (ADP-Glo Kinase Assay)
Type: biochemical
Settings: RIPK2 5 nM, ATP 150 μM, MBP substrate, read-out: RIPK2 IC50
Procedure: RIPK2 inhibition was measured as follows:
The V9102 ADP-Glo Kinase Assay (including ultrapure ATP, 10 mM) was purchased from Promega. Native swine MBP was used as the substrate for the reaction and was purchased from SignalChem Biotech (catalogue number M42-51N). Assay buffer used for the assay consisted of the following components: MgCl2 (final concentration of 10 mM), Brij-35 (0.01%), DTT (final concentration of 2 mM), BSA (0.05%), EGTA (final concentration of 1 mM), and HEPE (pH 7.5 at final concentration of 50 mM).
Method: In a 384 well plate, 10 nL of test compound was dispensed using Echo550 and mixed with RIPK2 enzyme (final concentration of 5 nM) in assay buffer for 30 minutes at room temperature. […] Then ADP-Glo reagent was added and incubated for 60 min at room temperature. Last, Kinase Detection Reagent was added to the mixture and incubated for 60 min. The resulting luminescent signal was measured with an Envision reader to determine the amount of ADP produced. All plates contained vehicle controls (10 nL DMSO only) as a reference for the high control (0% kinase inhibition), and wells with no RIPK2 enzyme as reference for low control (100% kinase inhibition). Data were analyzed to determine the percent inhibition of ADP production in the presence of test compound using both low and high controls.

T1 sequence (O43353 1-299 limits assumed): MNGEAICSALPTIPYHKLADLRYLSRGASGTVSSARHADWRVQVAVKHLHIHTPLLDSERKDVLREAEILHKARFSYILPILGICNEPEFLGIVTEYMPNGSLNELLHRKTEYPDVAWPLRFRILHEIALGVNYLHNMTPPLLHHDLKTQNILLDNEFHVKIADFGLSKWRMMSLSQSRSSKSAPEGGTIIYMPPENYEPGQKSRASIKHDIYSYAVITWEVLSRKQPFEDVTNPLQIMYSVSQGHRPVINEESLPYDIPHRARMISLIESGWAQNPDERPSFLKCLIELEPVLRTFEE

Row | IC50 [nM] | SMILES
1 | < 2.5 | Cc1c(Oc2ccnc3ccc(S(=O)(=O)N4CC(F)C4)cc23)ccc(CC(=O)Nc2cnn(C(C)(C)C)c2)c1F [Compound 272, N-(1-(tert-butyl)-1H-pyrazol-4-yl)-2-(2-fluoro-4-((6-((3-fluoroazetidin-1-yl)sulfonyl)quinolin-4-yl)oxy)-3-methylphenyl)acetamide]
2 | < 2.5 | Cc1c(Oc2ccnc3ccc(S(=O)(=O)C4CCOC4)cc23)ccc(CC(=O)Nc2cnn(C(C)(C)C)c2)c1F (single isomer, unassigned) [Compound 250, N-(1-(tert-butyl)-1H-pyrazol-4-yl)-2-(2-fluoro-3-methyl-4-((6-((tetrahydrofuran-3-yl)sulfonyl)quinolin-4-yl)oxy)phenyl)acetamide]
3 | < 2.5 | CC(C)c1cc(NC(=O)Cc2ccc(Oc3ccnc4ccc(S(C)(=O)=O)cc34)cc2F)n[nH]1 [Compound 143, 2-(2-fluoro-4-((6-(methylsulfonyl)quinolin-4-yl)oxy)phenyl)-N-(5-isopropyl-1H-pyrazol-3-yl)acetamide]
4 | < 2.5 | Cc1cc(CC(=O)Nc2cnn(C(C)(C)C)c2)c(F)cc1Oc1ccnc2ccc(CN3C[C@@H]4C[C@H]3CO4)cc12 [Compound 422, 2-(4-((6-(((1S,4S)-2-oxa-5-azabicyclo[2.2.1]heptan-5-yl)methyl)quinolin-4-yl)oxy)-2-fluoro-5-methylphenyl)-N-(1-(tert-butyl)-1H-pyrazol-4-yl)acetamide]
5 | 3 | Cc1cc(CC(=O)Nc2cnn(C(C)(C)C)c2)c(F)cc1Oc1ncnc2ccc(C(N)=O)cc12 [Compound 434, 4-(4-(2-((1-(tert-butyl)-1H-pyrazol-4-yl)amino)-2-oxoethyl)-5-fluoro-2-methylphenoxy)quinazoline-6-carboxamide]
6 | 5.9 | Cc1cc(CC(=O)Nc2cnn(C(C)(C)C)c2)ccc1Oc1ccnc2ccc(OC3CNC3)cc12 [Compound 228, 2-(4-((6-(azetidin-3-yloxy)quinolin-4-yl)oxy)-3-methyl-pheny 1)-N-(1-(tert-butyl)-1H-pyrazol-4-yl)acetamide]
7 | < 2.5 | Cc1cc(CC(=O)Nc2cnn(C(C)(C)C)c2)ccc1Oc1ccnc2ccc(N3CC(CN)OC3=O)cc12 (single isomer, unassigned) [Compound 320, 2-(4-((6-(5-(aminomethyl)-2-oxooxazolidin-3-yl)quinolin-4-yl)oxy)-3-methylphenyl)-N-(1-(tert-butyl)-1H-pyrazol-4-yl)acetamide]
8 | < 2.5 | CCS(=O)(=O)c1ccc2nccc(Oc3ccc(CC(=O)Nc4cnn(C(C)(C)C)c4)c(F)c3F)c2c1 [Compound 168, N-(1-(tert-butyl)-1H-pyrazol-4-yl)-2-(4-((6-(ethylsulfonyl)quinolin-4-yl)oxy)-2,3-difluorophenyl)acetamide]
9 | < 2.5 | Cc1cc(CC(=O)Nc2cnn(C(C)(C)C)c2)ccc1Oc1ccnc2ccc(S(=O)(=O)N3CCC3)cc12 [Compound 258, 2-(4-((6-(azetidin-1-ylsulfonyl)quinolin-4-yl)oxy)-3-methylphenyl)-N-(1-(tert-butyl)-1H-pyrazol-4-yl)acetamide]
10 | < 2.5 | Cc1c(Oc2ccnc3ccc(C(=O)N4CCC(O)CC4)cc23)ccc(CC(=O)Nc2cnn(C(C)(C)C)c2)c1F [Compound 357, N-(1-(tert-butyl)-1H-pyrazol-4-yl)-2-(2-fluoro-4-((6-(4-hydroxy-piperidine-1-carbonyl)quinolin-4-yl)oxy)-3-methyl-phenyl) acetamide]
11 | < 2.5 | Cc1c(Oc2ccnc3ccc(C(=O)N4CCNCC4)cc23)ccc(CC(=O)Nc2cnn(C(C)(C)C)c2)c1F [Compound 356, N-(1-(tert-butyl)-1H-pyrazol-4-yl)-2-(2-fluoro-3-methyl-4-((6-(piperazine-1-carbonyl)quinolin-4-yl)oxy)phenyl) acetamide]
12 | < 2.5 | Cc1cc(CC(=O)Nc2cnn(C(C)(C)C)c2)ccc1Oc1ccnc2ccc(S(=O)(=O)C3CC3)cc12 [Compound 100, N-(1-(tert-butyl)-1H-pyrazol-4-yl)-2-(4-((6-(cyclopropylsulfonyl)quinolin-4-yl)oxy)-3-methylphenyl)acetamide]
